# Measured values from ChEMBL document CHEMBL2074222, “Transport properties of nonsteroidal anti-inflammatory drugs by organic anion transporter 1 expressed in Xenopus laevis oocytes” (Mol Pharmacol, 1999).
# Tests used:
# Type in all cases: functional, cell-based, Oocyte
# [1] = molecular target: T1, Solute carrier family 22 member 6 (Rattus norvegicus, UniProt O35956); experiment: TP_TRANSPORTER: inhibition of PAH uptake in Xenopus laevis oocytes
# T1 sequence (O35956 whole entry): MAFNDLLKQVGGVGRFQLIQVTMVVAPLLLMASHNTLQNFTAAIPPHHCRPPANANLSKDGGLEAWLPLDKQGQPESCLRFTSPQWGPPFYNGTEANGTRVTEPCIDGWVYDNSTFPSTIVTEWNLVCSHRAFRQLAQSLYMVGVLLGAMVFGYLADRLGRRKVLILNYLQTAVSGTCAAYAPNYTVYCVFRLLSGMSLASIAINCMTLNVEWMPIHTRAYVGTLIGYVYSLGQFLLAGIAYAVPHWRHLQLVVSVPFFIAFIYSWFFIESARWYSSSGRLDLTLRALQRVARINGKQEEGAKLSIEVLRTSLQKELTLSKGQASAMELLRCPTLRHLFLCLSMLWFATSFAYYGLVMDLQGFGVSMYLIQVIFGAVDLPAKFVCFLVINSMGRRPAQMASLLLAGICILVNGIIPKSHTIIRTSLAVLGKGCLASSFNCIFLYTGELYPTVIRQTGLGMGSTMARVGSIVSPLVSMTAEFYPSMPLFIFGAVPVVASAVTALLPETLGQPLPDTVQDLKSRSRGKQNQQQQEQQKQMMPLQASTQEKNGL
# [2] = molecular target: T2, Solute carrier family 22 member 6 (SLC22A6) (Rattus norvegicus, UniProt O35956); experiment: TP_TRANSPORTER: inhibition of PAH uptake (PAH: 2 uM, […]: 1000 uM) in Xenopus laevis oocytes; details: probe PAH
# T2 sequence (O35956 whole entry): T1 sequence (O35956 whole entry)
# [3] = molecular target: T2, Solute carrier family 22 member 6 (SLC22A6); experiment: TP_TRANSPORTER: inhibition of PAH uptake (PAH: 2 uM, Antipyrine: 1000 uM) in Xenopus laevis oocytes; details: probe PAH
# [4] = molecular target: T2, Solute carrier family 22 member 6 (SLC22A6); experiment: TP_TRANSPORTER: inhibition of PAH uptake (PAH: 2 uM, Benzydamine: 1000 uM) in Xenopus laevis oocytes; details: probe PAH
# [5] = molecular target: T2, Solute carrier family 22 member 6 (SLC22A6); experiment: TP_TRANSPORTER: inhibition of PAH uptake (PAH: 2 uM, Diclofenac: 1000 uM) in Xenopus laevis oocytes; details: probe PAH
# [6] = molecular target: T2, Solute carrier family 22 member 6 (SLC22A6); experiment: TP_TRANSPORTER: inhibition of PAH uptake (PAH: 2 uM, Diflunisal: 1000 uM) in Xenopus laevis oocytes; details: probe PAH
# [7] = molecular target: T2, Solute carrier family 22 member 6 (SLC22A6); experiment: TP_TRANSPORTER: inhibition of PAH uptake (PAH: 2 uM, Flurbiprofen: 1000 uM) in Xenopus laevis oocytes; details: probe PAH
# [8] = molecular target: T2, Solute carrier family 22 member 6 (SLC22A6); experiment: TP_TRANSPORTER: inhibition of PAH uptake (PAH: 2 uM, Ketoprofen: 1000 uM) in Xenopus laevis oocytes; details: probe PAH
# [9] = molecular target: T2, Solute carrier family 22 member 6 (SLC22A6); experiment: TP_TRANSPORTER: inhibition of PAH uptake (PAH: 2 uM, Meclofenamate: 1000 uM) in Xenopus laevis oocytes; details: probe PAH
# [10] = molecular target: T2, Solute carrier family 22 member 6 (SLC22A6); experiment: TP_TRANSPORTER: inhibition of PAH uptake (PAH: 2 uM, Phenylbutazone: 1000 uM) in Xenopus laevis oocytes; details: probe PAH
# [11] = molecular target: T2, Solute carrier family 22 member 6 (SLC22A6); experiment: TP_TRANSPORTER: inhibition of PAH uptake (PAH: 2 uM, Tolmetin: 1000 uM) in Xenopus laevis oocytes; details: probe PAH
smiles,measurement,setting,value
CC(=O)Nc1ccc(O)cc1 [ACETAMINOPHEN],Ki,[1],2100 µM
Cc1c(N(C)C)c(=O)n(-c2ccccc2)n1C [AMINOPYRINE],inhibition at 1000 µM,[2],23.8%
Cc1cc(=O)n(-c2ccccc2)n1C [ANTIPYRINE],inhibition at 1000 µM,[3],37.8%
NCc1ccccc1 [BENZYLAMINE],inhibition at 1000 µM,[4],60%
O=C(O)Cc1ccccc1Nc1c(Cl)cccc1Cl [DICLOFENAC],inhibition at 1000 µM,[5],100%
O=C(O)c1cc(-c2ccc(F)cc2F)ccc1O [DIFLUNISAL],inhibition at 1000 µM,[6],100%
CC(C(=O)O)c1ccc(-c2ccccc2)c(F)c1 (stereo unspecified) [FLURBIPROFEN],inhibition at 1000 µM,[7],100%
COc1ccc2c(c1)c(CC(=O)O)c(C)n2C(=O)c1ccc(Cl)cc1 [INDOMETHACIN],Ki,[1],10 µM
CC(C(=O)O)c1cccc(C(=O)c2ccccc2)c1 (stereo unspecified) [KETOPROFEN],inhibition at 1000 µM,[8],100%
Cc1ccc(Cl)c(Nc2ccccc2C(=O)O)c1Cl [MECLOFENAMIC ACID],inhibition at 1000 µM,[9],99.8%
COc1ccc2cc([C@H](C)C(=O)O)ccc2c1 [NAPROXEN],Ki,[1],2 µM
CCCCC1C(=O)N(c2ccccc2)N(c2ccc(O)cc2)C1=O (stereo unspecified) [OXYPHENBUTAZONE ANHYDROUS],Ki,[1],32 µM
CCOc1ccc(NC(C)=O)cc1 [PHENACETIN],Ki,[1],488 µM
CCCCC1C(=O)N(c2ccccc2)N(c2ccccc2)C1=O [PHENYLBUTAZONE],inhibition at 1000 µM,[10],98.8%
O=C(O)CNC(=O)c1ccccc1O [SALICYLURIC ACID],Ki,[1],11 µM
Cc1ccc(C(=O)c2ccc(CC(=O)O)n2C)cc1 [TOLMETIN],inhibition at 1000 µM,[11],99.5%
